This test deals with Dual specificity tyrosine-phosphorylation-regulated kinase 1A (Homo sapiens, UniProt Q13627). Briefly: Binding affinity to DYRK1A (unknown origin).
A word on the Kd: it is the free concentration of one partner at which half of the binding sites on the other are occupied at equilibrium, for simple one-to-one binding. As for `NC(=O)c1ccc(-n2cnc3ccc(-c4ccncc4)c(F)c32)nc1`, the Kd worked out at 500 pM.
`O=C(O)c1ccc(-n2cnc3ccc(-c4ccncc4)nc32)cc1` gave a Kd of 500 pM.
For `CC(=O)N1C[C@@H]2[C@H](C1)[C@H]2n1c(C)nc2ccc(-c3ccncc3)nc21` the value was 500 pM; for `Fc1c(-c2ccncc2)ccc2ncn(-c3ccc4c(c3)OCO4)c12`, 500 pM.
On to `CC(=O)N1CC[C@H](n2c(C)nc3ccc(-c4ccncc4)nc32)C1`, for which the Kd came to 101000 pM.
Compound `c1cc(-c2ccc3ncn(-c4ccc5c(c4)OCO5)c3n2)ccn1` showed a Kd of 500 pM.
`Cc1nc2ccc(-c3ccncc3)nc2n1-c1ccc2c(c1)OCC(=O)N2` registered a Kd of 500 pM.
In the case of `COC(=O)c1ccc(-n2cnc3ccc(-c4ccncc4)c(F)c32)cc1`, binding was characterised by a dissociation constant (Kd) of 500 pM.
`Cc1nc2ccc(-c3cnn(C4CC4)c3)nc2n1-c1ccc(N2CCOCC2)c(F)c1`: the affinity, expressed as Kd, was 500 pM.
On to `Cc1nc2ccc(-c3ccncc3)nc2n1-c1ccc(CN2CCOCC2)cc1`, for which the Kd stood at 500 pM.
